Consider two compounds from US20260364213A1, “RADIOLABELED COMPOUNDS OF TRIMETHOPRIM AND USES THEREOF” (THE TRUSTEES OF THE UNIVERSITY OF PENNSYLVANIA, priority 2023, published 2026).

Entries after “also recorded” stand apart in the source; their conditions may differ.

Data set [1] in a line: In vitro stability in RPMI 1640 medium. The data set is classed as physicochemical. To be noted: 37 °C, up to 6 hours, radio-HPLC. As for the experimental part: The specific activity of [^211At]At-TMP and [^125I]I-TMP was determined by comparison of radioactivity to the area under 288-nm ultraviolet light peak on radio-HPLC. The in vitro stability of [^211At]At-TMP was examined with incubation in Roswell Park Memorial Institute (RPMI) 1640 medium at 37 °C for up to 6 hours, followed by radio-HPLC analysis.

The target of another data set is T1, eDHFR-YFP (Escherichia coli, UniProt P0ABQ4).
T1 sequence (P0ABQ4 1-159): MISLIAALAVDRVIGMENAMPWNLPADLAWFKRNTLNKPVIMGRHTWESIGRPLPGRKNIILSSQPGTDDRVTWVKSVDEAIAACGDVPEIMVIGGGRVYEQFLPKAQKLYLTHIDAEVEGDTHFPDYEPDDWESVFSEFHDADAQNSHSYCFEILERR
In words: Radioligand binding to eDHFR-YFP expressing cells. Further details: species or system E. coli. As for the experimental part:
Due to the high specific activity of [^211At]At-TMP that limits its working concentration to pM range, [^125I]I-TMP was used for saturation binding studies to determine Bmax.
eDHFR-YFP-positive I45 and SKOV3 cells were plated on 96-well plates (Corning #9102) at the density of 25,000 cells/well and 40,000 cells/well, respectively, in complete growth media 24 hours before the assay. […] After incubation at 37 °C for 90 minutes, the wells were aspirated and washed twice with ice-cold PBS. The radioactivity in each well was measured with a Perkin Elmer Wizard gamma counter. The assay was performed three times in triplicates. […] See, Swillens, Molecular pharmacology. 1995; 47(6):1197-203. The corresponding EC50 values were plotted against the receptor concentration/2 to determine the Kd. See, Hulme, British journal of pharmacology. 2010; 161(6):1219-37. The Bmax values were correlated with the total YFP florescence from the wells, with a correction factor of 2.5 and 2.2 for membrane-bound eDHFR-YFP in I45 and SKOV3, respectively, in order to account for decreased fluorescence per molecule from addition of the membrane localization signal to YFP. See, Wu, Science. 2005; 310(5746):310-4; and Bakholdina, Molecules. 2021; 26(13).
For determination of the Kd of [^211At]At-TMP, the binding assay protocol was repeated in I45 and SKOV3 cells expressing cytoplasmic eDHFR-YFP, using 150 μL of 0.06-60 nM [^125I]I-TMP±10 μM TMP for half of each 96-well plate and 50-260 μL of […] [^211At]At-TMP±10 μM TMP for the remaining half. The Bmax of each plate determined from [^125I]I-TMP binding was divided by the assay volumes used for [^211At]At-TMP to calculate the total receptor concentration ([RT]) in each [^211At]At-TMP well. The ligand depletion (δ) in each [^211At]At-TMP well was obtained by dividing the bound radioactivity by total added radioactivity. The assay was performed four times in triplicates. As derived in Supplemental Methods 1, δ^−1 was plotted against [RT]^−1 to determine the Kd as the slope of the linear best-fit line.
Supplemental Method 1. Measurement of the dissociation constant (Kd) of [^211At]At-TMP binding to eDHFR under non-saturating, ligand-depleting conditions. When [Ligand]<<Kd, ligand depletion (6) at equilibrium is
where [R] is the free receptor concentration and [RT]is the total receptor concentration. Since 6 is non-zero, taking the reciprocal of both sides of the equation yields
[formula] • If a δ^−1 vs. [RT]^−1 graph where y=δ^−1 and x=[RT]^−1 is plot,
Therefore, the slope of the linear best-fit line represents the Kd and the y-intercept is 1.

The subject of the next data set is I45 cells. In words: Cytotoxicity in I45 cells with subcellular eDHFR-YFP. The data set is classed as cell-based, human. The settings on record: for RBE: ref. cytoplasmic. As for the experimental part: (§1) Wild-type and eDHFR-YFP-expressing I45 and SKOV3 cells were seeded on 96-well plates (Corning #3603) at the density of 1,000 cells/well and 3,000 cells/well, respectively, in complete growth media 24 hours before the assay. The following five treatment conditions were applied in complete growth media: 200 μCi/mL ~15 μCi/mL [^211At]At-TMP, 120 μCi/mL-15 μCi/mL free ^211At, 120 μCi/mL-15 μCi/mL [^211At]At-TMP+10 μM TMP, 10 nM-1 μM doxorubicin, and 40 μM−1 mM TMP. After 72 hours of incubation, the surviving fraction of the cells was quantified using CellTiter-Glo (Promega #G9243). See, Makvandi, Molecular cancer therapeutics. 2019; 18(7):1195-204. The assay was performed three times in triplicates. The effective concentration for 50% cell death (EC50) was determined for each treatment condition by fitting the surviving fractions into a non-linear sigmoidal dose-response curve. For eDHFR-YFP-positive cells, the [^211At]At-TMP treatment concentrations were converted to the number of ^211At decays/cell, using the median number of receptors/cell (obtained from YFP fluorescence) and Kd of [^211At]At-TMP. See, Lee, Journal of nuclear medicine. 2020; 61(6):850-6.
(§2) For comparison to the nuclear S-values, the observed cytotoxicity per ^211At decay was also expressed relative to cytoplasmic eDHFR-YFP. […] Finally, the ratio between the isolated cytotoxicity and nuclear S-value was calculated as the RBE for eDHFR-YFP in each subcellular compartment.
(§3) Supplemental Method 2. Calculation of the relative cytotoxicity of ^211At decay in different subcellular compartments. • By the linear-quadratic model for targeted alpha therapy,
(§4) (Survival)=e^−αD-βD^2≈e^−αD • Let N=number of ^211At decays/cell at EC50. Then, the following is obtained:
(§5) ln(0.5)=−αD=−TN • where T is the product of S-value and α, representing cytotoxicity per decay. Let F=fraction of eDHFR in each subcellular compartment. Then, the following can be written:
(§6) [formula] • where capital letters denote the microscopically observed subcellular location of eDHFR and lowercase letters denote the genetically targeted location of eDHFR.
(§7) The measured values of F (FIG. 19) and N (FIG. 28C) were then used to solve for T. DNA-targeted eDHFR observed in the nucleus is assumed to be 100% DNA-bound, and for SKOV3, Nc≈Nm is applied based on the lack of significant difference in EC50.
(§8) Finally, the T values are normalized with Tc to obtain the relative cytotoxicity of ^211At decay in each subcellular compartment compared to the cytoplasm.

A further data set relates to SKOV3 cells. As to the kind of experiment: Cytotoxicity in SKOV3 cells with subcellular eDHFR-YFP. The data set is classed as cell-based, human. The settings on record: for RBE: ref. cytoplasmic. As for the experimental part:
as §1, §2, §3, §4, §5, §6, §7, §8

The test system of a further data set is I45 and SKOV3 cells. In words: Cytotoxicity in wild-type and eDHFR-YFP-expressing I45 and SKOV3 cells. The data set is classed as cell-based, human. As for the experimental part:
After 72 hours of incubation, the surviving fraction of the cells was quantified using CellTiter-Glo (Promega #G9243). See, Makvandi, Molecular cancer therapeutics. […] The assay was performed three times in triplicates. […] See, Lee, Journal of nuclear medicine.

The subject of another data set is hamster fibroblasts. To be noted: predominantly nuclear lead-212 vs predominantly cytoplasmic polonium-210; cited from earlier work.

Regarding `COc1cc(Cc2cnc(N)nc2N)cc([At])c1OC` [[^211At]At-TMP], the “in vitro stability in aqueous media” value in data set [1] was “stable at 37 °C in aqueous media”. Moreover, the “binding affinity compared to [^125I]I-TMP” value at eDHFR-YFP (I45 and SKOV3 cells) was “lower binding affinity”. The Kd at eDHFR-YFP (I45 and SKOV3 cells) was 2.5 to 4.8 nM; on eDHFR-YFP (I45 cells) it was 4.8 ± 0.1 nM; on eDHFR-YFP (SKOV3 cells), 2.5 ± 0.2 nM. In addition, the “relative cytotoxicity with reference to cytoplasmic eDHFR” value is 10 with I45 cells (I45, DNA-bound); 2.8 with I45 cells (I45, membrane-bound); 7.4 with I45 cells (I45, nuclear); 13 in the data set on SKOV3 cells (SKOV3, DNA-bound); 1.0 with SKOV3 cells (SKOV3, membrane-bound); 8.5 in the data set on SKOV3 cells (SKOV3, nuclear). Besides, the RBE in the data set on I45 cells (I45, DNA-bound) was 3.1; with I45 cells (I45, membrane-bound), 3.5; in the data set on I45 cells (I45, nuclear) it was 2.3; with SKOV3 cells (SKOV3, DNA-bound) it was 3.2; in the data set with SKOV3 cells (SKOV3, membrane-bound), 1.4; in the data set on SKOV3 cells (SKOV3, nuclear), 2.0. Moreover, in the data set on I45 cells (I45, P=0.005), the “cytotoxicity, membrane-bound compared to cytoplasmic eDHFR” value is recorded as “higher cytotoxicity compared to cytoplasmic eDHFR”. Also, the “cytotoxicity in eDHFR-expressing compared to wild-type cells” value in the data set on I45 and SKOV3 cells (72 h) is recorded as “significantly higher cytotoxicity”. In addition, the “cytotoxicity per bound decays/cell, DNA-bound and nuclear eDHFR” value in the data set with I45 and SKOV3 cells (DNA-bound P=0.017 I45, P=0.012 SKOV3, nuclear P=0.0006 I45, P=0.004 SKOV3) was “the highest cytotoxicity was observed with DNA-bound eDHFR (P=0.017 in I45 and P=0.012 in SKOV3), followed by nuclear eDHFR”. For the same compound, in the data set with I45 and SKOV3 cells (up to 34 μM (so in the source)), the pharmacologic cytotoxicity entry is listed as “absence of pharmacologic cytotoxicity”. The “difference in cytotoxicity wild-type vs eDHFR-expressing, blocked” value with I45 and SKOV3 cells (with 10 μM cold TMP) was “disappearance; also recorded: comparable across the wild-type and eDHFR-YFP-expressing cells”.
For lead-212, the “RBE relative to gamma irradiation” value with hamster fibroblasts is given as 4.
